Each block holds one compound with its values, some of them ahead of it. Activity calls are given as the source filed them. The calls are words filed in the database; no cut-off is given here.
Tests used:
Rattus norvegicus [1] = assay: Antinociceptive activity in CD rat assessed as reduction in number of hind paw flinching at 30 mg/kg, po by formalin test; format: functional, organism-based; design: dose 30 mg/kg
Rattus norvegicus [2] = species: Rattus norvegicus; assay: Reversal of pin-prick-induced neuropathic mechanical hyperalgesia in Harlan Sprague-Dawley rat sciatic nerve ligation model; format: functional, organism-based
[3] = molecular target: Sodium-dependent serotonin transporter (Rattus norvegicus, UniProt P31652); format: cell-based, HEK293
Chain of Sodium-dependent serotonin transporter (Rattus norvegicus, UniProt P31652) (P31652 whole entry): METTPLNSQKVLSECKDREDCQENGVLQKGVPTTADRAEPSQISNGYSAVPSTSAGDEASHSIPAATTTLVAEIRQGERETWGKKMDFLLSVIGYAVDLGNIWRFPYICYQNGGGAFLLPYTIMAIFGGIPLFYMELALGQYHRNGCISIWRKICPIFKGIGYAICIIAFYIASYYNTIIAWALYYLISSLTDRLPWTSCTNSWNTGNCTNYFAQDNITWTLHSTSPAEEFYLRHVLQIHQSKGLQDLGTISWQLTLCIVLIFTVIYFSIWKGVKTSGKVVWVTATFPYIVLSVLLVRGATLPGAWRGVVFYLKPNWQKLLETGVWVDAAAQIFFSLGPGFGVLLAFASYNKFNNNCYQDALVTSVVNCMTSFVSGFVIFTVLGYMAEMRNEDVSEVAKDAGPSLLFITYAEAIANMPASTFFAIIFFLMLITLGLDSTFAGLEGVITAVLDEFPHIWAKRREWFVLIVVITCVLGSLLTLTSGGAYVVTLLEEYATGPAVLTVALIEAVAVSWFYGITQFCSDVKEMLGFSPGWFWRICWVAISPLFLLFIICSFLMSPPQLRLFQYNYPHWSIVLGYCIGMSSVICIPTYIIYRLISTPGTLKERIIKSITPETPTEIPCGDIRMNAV

[4] = Lipophilicity, log D of the compound; format: physicochemical; conditions: octanol/water
[5] = Partition coefficient, log P of the compound; format: physicochemical; conditions: octanol/water
[6] = Metabolic stability in human liver microsomes assessed as systemic clearance at 1 uM after 15 mins by LC-MS/MS analysis; format: ADME, Microsome
[7] = Metabolic stability in rat liver microsomes assessed as systemic clearance at 1 uM after 15 mins by LC-MS/MS analysis; format: ADME, Microsome
[8] = Cmax in Sprague-Dawley rat at 30 mg/kg, po; format: ADME, organism-based; design: dose 30 mg/kg, route oral; conditions: in vivo
[9] = Tmax in Sprague-Dawley rat at 30 mg/kg, po; format: ADME, organism-based; design: dose 30 mg/kg, route oral; conditions: in vivo
[10] = AUC in Sprague-Dawley rat at 30 mg/kg, po; format: ADME, organism-based; design: dose 30 mg/kg, route oral; conditions: plasma
[11] = Apparent elimination half life in Sprague-Dawley rat at 30 mg/kg, po; format: ADME, organism-based; design: dose 30 mg/kg, route oral; conditions: in vivo, read-out: beta t1/2 (converted)
[12] = Apparent oral clearance in Sprague-Dawley rat at 30 mg/kg, po; format: ADME, organism-based; design: dose 30 mg/kg, route oral; conditions: in vivo
[13] = Drug level in Sprague-Dawley rat brain at 30 mg/kg, po after 1 hr; format: ADME, organism-based; design: dose 30 mg/kg, route oral; conditions: read-out: Drug uptake
[14] = Drug level in Sprague-Dawley rat brain at 30 mg/kg, po after 4 hrs; format: ADME, organism-based; design: dose 30 mg/kg, route oral; conditions: read-out: Drug uptake
[15] = Ratio of drug level in brain to plasma in Sprague-Dawley rat at 30 mg/kg, po after 1 hr; format: ADME, organism-based; design: dose 30 mg/kg, route oral
[16] = Ratio of drug level in brain to plasma in Sprague-Dawley rat at 30 mg/kg, po after 4 hrs; format: ADME, organism-based; design: dose 30 mg/kg, route oral
Rattus norvegicus [17] = assay: Antinociceptive activity in CD rat assessed as reduction in number of hind paw flinching at 60 mg/kg, po by formalin test; format: functional; design: scale not given: the % may be the effect or the level left
in vitro = conditions: human, Caco-2
Description: Apparent permeability from apical to basolateral side of the human Caco-2 cells

[18] = molecular target: Sodium-dependent noradrenaline transporter (Homo sapiens, UniProt P23975); assay: biochemical
Chain of Sodium-dependent noradrenaline transporter (P23975 whole entry): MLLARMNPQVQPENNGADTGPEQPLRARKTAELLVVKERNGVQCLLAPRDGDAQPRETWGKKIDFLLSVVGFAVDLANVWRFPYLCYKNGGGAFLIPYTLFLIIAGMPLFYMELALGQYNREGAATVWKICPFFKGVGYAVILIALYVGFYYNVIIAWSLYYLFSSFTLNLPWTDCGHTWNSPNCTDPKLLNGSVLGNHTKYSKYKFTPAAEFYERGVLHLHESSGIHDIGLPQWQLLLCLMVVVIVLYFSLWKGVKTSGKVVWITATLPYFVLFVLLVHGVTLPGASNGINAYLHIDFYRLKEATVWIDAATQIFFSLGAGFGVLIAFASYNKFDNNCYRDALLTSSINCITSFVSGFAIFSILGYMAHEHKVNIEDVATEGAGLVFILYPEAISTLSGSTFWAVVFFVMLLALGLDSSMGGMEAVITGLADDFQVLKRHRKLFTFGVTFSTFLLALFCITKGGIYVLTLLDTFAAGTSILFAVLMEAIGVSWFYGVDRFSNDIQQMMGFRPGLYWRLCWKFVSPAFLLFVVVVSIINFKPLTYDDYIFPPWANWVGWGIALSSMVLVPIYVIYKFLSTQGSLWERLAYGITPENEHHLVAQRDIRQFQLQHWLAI
Description: Displacement of Levo[ring-2,5,6-3H]norepinephrine from human cloned NET expressed in HEK293 cells by microplate scintillation counter

[19] = molecular target: Sodium-dependent serotonin transporter (Homo sapiens, UniProt P31645); assay: biochemical
Chain of Sodium-dependent serotonin transporter (Homo sapiens, UniProt P31645) (P31645 whole entry): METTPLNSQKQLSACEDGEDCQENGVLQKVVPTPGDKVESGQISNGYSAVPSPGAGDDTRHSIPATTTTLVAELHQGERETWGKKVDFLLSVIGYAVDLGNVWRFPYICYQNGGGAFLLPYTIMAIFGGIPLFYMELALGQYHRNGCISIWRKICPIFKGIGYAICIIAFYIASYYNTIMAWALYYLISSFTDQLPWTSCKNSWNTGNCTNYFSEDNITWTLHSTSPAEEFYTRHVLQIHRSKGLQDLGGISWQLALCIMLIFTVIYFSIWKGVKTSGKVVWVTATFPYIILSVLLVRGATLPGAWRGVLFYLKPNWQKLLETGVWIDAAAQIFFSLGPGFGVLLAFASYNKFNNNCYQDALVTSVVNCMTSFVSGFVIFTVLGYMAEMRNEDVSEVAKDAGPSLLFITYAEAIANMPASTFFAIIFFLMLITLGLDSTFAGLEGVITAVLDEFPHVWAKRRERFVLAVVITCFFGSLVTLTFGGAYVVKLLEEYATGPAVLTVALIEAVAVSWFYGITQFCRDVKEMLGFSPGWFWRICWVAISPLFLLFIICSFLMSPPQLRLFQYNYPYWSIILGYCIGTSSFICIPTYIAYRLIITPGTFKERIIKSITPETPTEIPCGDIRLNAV
Description: Displacement of [alpha,beta-3H(N)]-5-hydroxytryptamine from human cloned SERT expressed in HEK293 cells by microplate scintillation counter

[20] = molecular target: Sodium-dependent dopamine transporter (Homo sapiens, UniProt Q01959); assay: biochemical
Chain of Sodium-dependent dopamine transporter (Homo sapiens, UniProt Q01959) (Q01959 whole entry): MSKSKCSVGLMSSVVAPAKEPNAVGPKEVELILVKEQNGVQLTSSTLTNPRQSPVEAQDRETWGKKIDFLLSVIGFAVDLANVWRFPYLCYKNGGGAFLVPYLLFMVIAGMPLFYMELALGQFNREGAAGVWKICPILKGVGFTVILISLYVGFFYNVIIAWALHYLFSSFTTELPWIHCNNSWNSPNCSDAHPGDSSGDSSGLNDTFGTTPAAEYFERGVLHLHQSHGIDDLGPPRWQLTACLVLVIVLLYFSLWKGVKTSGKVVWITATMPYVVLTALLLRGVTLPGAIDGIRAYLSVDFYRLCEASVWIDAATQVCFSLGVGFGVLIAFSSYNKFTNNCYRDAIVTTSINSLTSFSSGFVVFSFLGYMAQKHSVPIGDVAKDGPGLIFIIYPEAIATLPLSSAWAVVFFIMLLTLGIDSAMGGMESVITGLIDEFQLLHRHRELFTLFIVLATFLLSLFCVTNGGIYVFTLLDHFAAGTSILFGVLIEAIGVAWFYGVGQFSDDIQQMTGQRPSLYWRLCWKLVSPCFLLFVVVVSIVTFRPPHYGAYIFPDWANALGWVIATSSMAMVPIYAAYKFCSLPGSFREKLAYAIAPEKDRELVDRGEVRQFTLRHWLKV
Description: Displacement of 3,4-[ring-2,5,6-3H]dihydroxyphenylethylamine from human cloned DAT expressed in HEK293 cells by microplate scintillation counter

Transporter = Transporter (Rattus norvegicus, UniProt Q63380); assay: biochemical
Chain of Transporter (Q63380 whole entry): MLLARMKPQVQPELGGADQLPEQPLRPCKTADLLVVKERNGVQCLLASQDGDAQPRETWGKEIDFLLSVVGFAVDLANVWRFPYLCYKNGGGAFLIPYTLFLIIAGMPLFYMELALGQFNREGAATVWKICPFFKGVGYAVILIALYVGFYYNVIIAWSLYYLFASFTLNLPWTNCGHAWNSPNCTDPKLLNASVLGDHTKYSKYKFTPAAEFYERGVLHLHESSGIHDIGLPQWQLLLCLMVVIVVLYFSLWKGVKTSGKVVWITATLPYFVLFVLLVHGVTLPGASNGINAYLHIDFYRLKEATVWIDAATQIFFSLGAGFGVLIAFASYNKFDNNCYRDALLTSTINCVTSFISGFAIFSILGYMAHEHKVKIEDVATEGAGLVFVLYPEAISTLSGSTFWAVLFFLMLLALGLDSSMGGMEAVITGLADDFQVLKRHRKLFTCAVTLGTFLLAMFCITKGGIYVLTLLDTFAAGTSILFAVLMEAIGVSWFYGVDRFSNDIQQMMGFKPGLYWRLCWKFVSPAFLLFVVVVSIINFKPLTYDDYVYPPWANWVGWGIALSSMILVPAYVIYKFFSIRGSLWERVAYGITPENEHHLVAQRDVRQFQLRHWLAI
Description: Displacement of Levo[ring-2,5,6-3H]norepinephrine from rat synaptosomal NET expressed in HEK293 cells by microplate scintillation counter

[21] = molecular target: Sodium-dependent dopamine transporter (Rattus norvegicus, UniProt P23977); assay: biochemical
Chain of Sodium-dependent dopamine transporter (Rattus norvegicus, UniProt P23977) (P23977 whole entry): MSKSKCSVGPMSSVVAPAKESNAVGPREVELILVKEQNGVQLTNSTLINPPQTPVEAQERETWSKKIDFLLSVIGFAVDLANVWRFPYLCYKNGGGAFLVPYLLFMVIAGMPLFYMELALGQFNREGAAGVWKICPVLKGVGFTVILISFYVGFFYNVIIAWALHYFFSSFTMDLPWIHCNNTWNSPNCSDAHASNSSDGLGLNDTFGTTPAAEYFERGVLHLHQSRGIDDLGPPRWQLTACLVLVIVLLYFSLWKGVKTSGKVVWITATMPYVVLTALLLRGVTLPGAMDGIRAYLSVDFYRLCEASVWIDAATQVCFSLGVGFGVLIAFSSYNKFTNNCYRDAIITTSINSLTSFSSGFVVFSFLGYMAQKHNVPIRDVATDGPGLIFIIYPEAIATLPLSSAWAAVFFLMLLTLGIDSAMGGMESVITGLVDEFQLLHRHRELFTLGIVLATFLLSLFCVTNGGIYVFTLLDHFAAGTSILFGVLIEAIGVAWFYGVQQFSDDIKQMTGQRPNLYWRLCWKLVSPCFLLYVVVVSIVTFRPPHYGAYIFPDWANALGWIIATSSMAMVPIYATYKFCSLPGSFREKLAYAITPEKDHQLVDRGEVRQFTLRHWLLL
Description: Displacement of 3,4-[ring-2,5,6-3H]dihydroxyphenylethylamine from rat synaptosomal DAT expressed in HEK293 cells by microplate scintillation counter

[22] = molecular target: Voltage-gated inwardly rectifying potassium channel KCNH2 (Homo sapiens, UniProt Q12809)
Chain of Voltage-gated inwardly rectifying potassium channel KCNH2 (Q12809 whole entry): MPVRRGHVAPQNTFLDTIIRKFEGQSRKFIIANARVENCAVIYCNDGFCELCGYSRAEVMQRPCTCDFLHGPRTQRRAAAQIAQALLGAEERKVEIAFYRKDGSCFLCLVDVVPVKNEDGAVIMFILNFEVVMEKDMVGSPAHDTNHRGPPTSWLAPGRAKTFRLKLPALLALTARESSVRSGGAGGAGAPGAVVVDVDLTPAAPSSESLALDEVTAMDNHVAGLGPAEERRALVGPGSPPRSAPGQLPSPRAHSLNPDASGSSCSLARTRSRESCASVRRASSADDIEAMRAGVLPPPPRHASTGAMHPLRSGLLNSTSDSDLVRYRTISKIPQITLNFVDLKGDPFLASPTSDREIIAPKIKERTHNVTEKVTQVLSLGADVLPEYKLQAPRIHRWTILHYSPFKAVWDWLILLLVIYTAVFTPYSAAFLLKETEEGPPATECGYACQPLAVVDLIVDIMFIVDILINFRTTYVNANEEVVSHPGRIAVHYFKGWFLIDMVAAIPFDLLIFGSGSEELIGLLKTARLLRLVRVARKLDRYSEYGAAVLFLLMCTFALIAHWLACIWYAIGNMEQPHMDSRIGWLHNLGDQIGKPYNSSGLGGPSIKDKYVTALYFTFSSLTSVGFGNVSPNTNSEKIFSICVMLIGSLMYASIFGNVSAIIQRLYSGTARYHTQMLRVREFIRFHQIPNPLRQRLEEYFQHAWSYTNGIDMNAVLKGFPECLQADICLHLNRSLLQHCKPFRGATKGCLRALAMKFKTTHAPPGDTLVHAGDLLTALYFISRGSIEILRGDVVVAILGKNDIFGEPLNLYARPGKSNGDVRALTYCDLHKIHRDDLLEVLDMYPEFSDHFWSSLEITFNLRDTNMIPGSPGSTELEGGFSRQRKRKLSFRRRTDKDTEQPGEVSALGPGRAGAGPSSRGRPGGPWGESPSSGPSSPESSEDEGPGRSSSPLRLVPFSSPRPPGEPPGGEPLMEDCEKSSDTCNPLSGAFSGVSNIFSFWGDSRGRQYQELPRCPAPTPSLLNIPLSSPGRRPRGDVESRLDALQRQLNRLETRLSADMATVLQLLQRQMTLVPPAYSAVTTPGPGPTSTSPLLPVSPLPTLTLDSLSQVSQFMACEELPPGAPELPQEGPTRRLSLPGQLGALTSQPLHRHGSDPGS
Description: Inhibition of human ERG expressed in HEK293 cells by patch-clamp method

Cytochrome P450 2D6 = Cytochrome P450 2D6 (Homo sapiens, UniProt P10635); assay: Inhibition of CYP2D6; format: ADME
[23] = AUC in Sprague-Dawley rat at 5 mg/kg, iv; format: ADME, organism-based; design: dose 5 mg/kg, route intravenous; conditions: plasma
[24] = Half life in Sprague-Dawley rat at 5 mg/kg, iv; format: ADME, organism-based; design: dose 5 mg/kg, route intravenous; conditions: in vivo
[25] = Mean residence time in Sprague-Dawley rat at 5 mg/kg, iv; format: ADME, organism-based; design: dose 5 mg/kg, route intravenous; conditions: in vivo
[26] = Plasma clearance in Sprague-Dawley rat at 5 mg/kg, iv; format: ADME, organism-based; design: dose 5 mg/kg, route intravenous
[27] = Renal clearance in Sprague-Dawley rat at 5 mg/kg, iv; format: ADME, organism-based, Kidney; design: dose 5 mg/kg, route intravenous; conditions: in vivo, read-out: CL_renal
[28] = Volume of distribution at steady state in Sprague-Dawley rat at 5 mg/kg, iv; format: ADME, organism-based; design: dose 5 mg/kg, route intravenous; conditions: in vivo, read-out: Vdss
[29] = Volume of distribution in Sprague-Dawley rat at 5 mg/kg, iv; format: ADME, organism-based; design: dose 5 mg/kg, route intravenous; conditions: in vivo
[30] = Bioavailability in Sprague-Dawley rat at 5 mg/kg, iv; format: ADME, organism-based; conditions: in vivo
[31] = Drug excretion in Sprague-Dawley rat urine at 5 mg/kg, iv; format: ADME, organism-based; design: dose 5 mg/kg, route intravenous; conditions: read-out: Activity

Description for physchem: Dissociation constant, pKa of the compound

SMILES: C=CCN(CC=C)C(=O)[C@@]1(c2cccs2)C[C@H]1CN
Activity (Rattus norvegicus [1]): Active
Activity (Rattus norvegicus [2]): Dose-dependent effect

SMILES: NC[C@@H]1C[C@@]1(C(=O)N1Cc2ccccc2C1)c1cccs1
IC50 [3]: 25 nM
logD [4]: 0.5
logP [5]: 2.2
CLhep predicted at 1 µM [6]: 8.8 mL/min/kg
CLhep predicted at 1 µM [7]: 64 mL/min/kg
Cmax [8]: 58 ng/mL
Tmax [9]: 66 min
AUC [10]: 272 ng·h/mL
half-life [11]: 138 min
CL/F [12]: 1840 mL/min/kg
concentration at 1 h [13]: 28 ng/g
concentration at 4 h [14]: 24 ng/g
Kp at 1 h [15]: 1
Kp at 4 h [16]: 1.8
Activity (Rattus norvegicus [17]): 56%
pKa (physchem): 9.5
Papp A→B (in vitro): 8.4 ×10⁻⁶ cm/s
IC50 [18]: 21 nM
IC50 [19]: 13 nM
IC50 [20]: 5.54 µM
IC50 (Transporter): 15 nM
IC50 [21]: 2000 nM

CLhep predicted at 1 µM [6]: 11 mL/min/kg
CLhep predicted at 1 µM [7]: 62 mL/min/kg
Papp A→B (in vitro): 13.7 ×10⁻⁶ cm/s
IC50 [18]: 15 nM
IC50 [19]: 140 nM
IC50 [20]: > 10 µM
SMILES: C=CCN(CC)C(=O)[C@@]1(c2cccs2)C[C@H]1CN

logD [4]: -0.4
logP [5]: 1.6
CLhep predicted at 1 µM [6]: 7 mL/min/kg
CLhep predicted at 1 µM [7]: 47 mL/min/kg
pKa (physchem): 9.4
Papp A→B (in vitro): 6.4 ×10⁻⁶ cm/s
IC50 [18]: 13 nM
IC50 [19]: 16 nM
IC50 [20]: > 10 µM
SMILES: C=CCN(Cc1nccs1)C(=O)[C@@]1(c2cccs2)C[C@H]1CN

CLhep predicted at 1 µM [6]: 5 mL/min/kg
CLhep predicted at 1 µM [7]: 63 mL/min/kg
Papp A→B (in vitro): 17.8 ×10⁻⁶ cm/s
IC50 [18]: 17 nM
IC50 [19]: 45 nM
IC50 [20]: > 10 µM
SMILES: C=CCN(C(=O)[C@@]1(c2cccs2)C[C@H]1CN)C1CC1
IC50 [22]: > 10 µM

Papp A→B (in vitro): 1 ×10⁻⁶ cm/s
SMILES: C[C@H]1O[C@@H](O[C@H]2[C@@H](O)C[C@H](O[C@H]3[C@@H](O)C[C@H](O[C@H]4CC[C@@]5(C)[C@H](CC[C@@H]6[C@@H]5C[C@@H](O)[C@]5(C)[C@@H](C7=CC(=O)OC7)CC[C@]65O)C4)O[C@@H]3C)O[C@@H]2C)C[C@H](O)[C@@H]1O [DIGOXIN]

SMILES: C=C(F)CN(CC)C(=O)[C@@]1(c2cccs2)C[C@H]1CN
IC50 [3]: 160 nM
logD [4]: 0.2
logP [5]: 1.8
CLhep predicted at 1 µM [6]: 2.6 mL/min/kg
CLhep predicted at 1 µM [7]: 54 mL/min/kg
IC50 (Cytochrome P450 2D6): 6 µM
Cmax [8]: 974 ng/mL
Tmax [9]: 24 min
AUC [10]: 1500 ng·h/mL
half-life [11]: 54 min
CL/F [12]: 334 mL/min/kg
concentration at 1 h [13]: 70 ng/g
concentration at 4 h [14]: 31 ng/g
Kp at 1 h [15]: 0.73
Kp at 4 h [16]: 1.1
AUC [23]: 532 ng·h/mL
half-life [24]: 36 min
MRT [25]: 42 min
clearance [26]: 140 mL/min/kg
CL renal [27]: 59 mL/min/kg
Vd [28]: 5.5 L/kg
Vd [29]: 7.5 L/kg
bioavailability [30]: 47%
Activity (Rattus norvegicus [17]): 56%
dose excreted [31]: 30%
IC50 [22]: > 10 µM
pKa (physchem): 9.4
Papp A→B (in vitro): 16.7 ×10⁻⁶ cm/s
IC50 [18]: 4.4 nM
IC50 [19]: 97 nM
IC50 [20]: > 10 µM
IC50 (Transporter): 21 nM
IC50 [21]: > 10000 nM

From ChEMBL document CHEMBL1152288, “Characterization of thien-2-yl 1S,2R-milnacipran analogues as potent norepinephrine/serotonin transporter inhibitors for the treatment of neuropathic pain” (J Med Chem, 2008)
